{"source": "paper PMC5095062", "about": "“The novel choline kinase inhibitor ICL-CCIC-0019 reprograms cellular metabolism and inhibits cancer cell growth” (Oncotarget, 2016)", "experiment_in_all_cases": "Kinase selectivity screen", "format_in_all_cases": "biochemical", "key": {"[1]": {"molecular_target": "NEK6 (Homo sapiens, UniProt Q9HC98)", "conditions": "NEK6, 10 μM", "protocol": "(§1) The substantially less demanding synthesis of ICL-CCIC-0019 compared with MN58B bears additional advantages. […] This consequently diminished intracellular PCho concentration, and importantly, the incorporation of [^3H]-choline into lipids (Figure 1D). […] To assess kinase specificity, ICL-CCIC-0019 was tested against a panel of 131 human kinases (Figure 1E and Supplementary Table S1). […] Inhibition greater than 20% was attained for insulin-like growth factor 1 (IGF-1R, 35 ± 7% inhibition), mitogen-activated protein kinase-activated protein kinase 3 (MAPKAP-K3, 33 ± 6%), extracellular signal regulated kinase 8 (ERK8, 31 ± 4%), ribosomal S6 kinase 1 (RSK1, 22 ± 6%), and v-erb-a erythroblastic leukemia viral oncogene homolog 4 (HER4, 21 ± 7%)."}, "[2]": {"molecular_target": "MKK6 (Homo sapiens, UniProt P52564)", "conditions": "MKK6, 10 μM", "protocol": "as §1"}, "[3]": {"molecular_target": "S6K1 (Homo sapiens, UniProt P23443)", "conditions": "S6K1, 10 μM", "protocol": "as §1"}, "[4]": {"molecular_target": "p38b MAPK (Homo sapiens, UniProt Q15759)", "protocol": "as §1"}, "[5]": {"molecular_target": "TAO1 (Homo sapiens, UniProt Q7L7X3)", "conditions": "TAO1, 10 μM", "protocol": "as §1"}, "[6]": {"molecular_target": "p38d MAPK (Homo sapiens, UniProt O15264)", "protocol": "as §1"}, "[7]": {"molecular_target": "CDK9-Cyclin T1 (Homo sapiens, UniProt P50750)", "conditions": "CDK9-Cyclin T1, 10 μM", "protocol": "as §1"}, "[8]": {"molecular_target": "MAPKAP-K3 (Homo sapiens, UniProt Q16644)", "sequence (Q16644 whole entry)": "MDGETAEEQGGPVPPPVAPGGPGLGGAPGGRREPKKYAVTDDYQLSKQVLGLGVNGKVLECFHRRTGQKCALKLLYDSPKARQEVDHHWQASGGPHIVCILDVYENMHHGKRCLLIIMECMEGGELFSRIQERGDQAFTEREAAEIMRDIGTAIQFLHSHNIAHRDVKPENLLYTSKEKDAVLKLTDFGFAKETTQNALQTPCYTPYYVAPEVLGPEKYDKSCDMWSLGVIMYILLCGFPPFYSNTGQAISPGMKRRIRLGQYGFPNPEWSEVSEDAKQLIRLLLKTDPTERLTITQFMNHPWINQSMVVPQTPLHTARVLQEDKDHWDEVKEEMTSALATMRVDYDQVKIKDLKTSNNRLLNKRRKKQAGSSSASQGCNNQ", "conditions": "MAPKAP-K3, 10 μM", "protocol": "as §1"}, "[9]": {"molecular_target": "TTBK1 (Homo sapiens, UniProt Q5TCY1)", "conditions": "TTBK1, 10 μM", "protocol": "as §1"}, "[10]": {"molecular_target": "Aurora A (Homo sapiens, UniProt O14965)", "protocol": "as §1"}, "[11]": {"molecular_target": "TrkA (Homo sapiens, UniProt P04629)", "protocol": "as §1"}, "[12]": {"molecular_target": "EPH-B2 (Homo sapiens, UniProt P29323)", "conditions": "EPH-B2, 10 μM", "protocol": "as §1"}, "[13]": {"molecular_target": "JNK2 (Homo sapiens, UniProt P45984)", "conditions": "JNK2, 10 μM", "protocol": "as §1"}, "[14]": {"molecular_target": "DAPK1 (Homo sapiens, UniProt P53355)", "sequence (P53355 whole entry)": "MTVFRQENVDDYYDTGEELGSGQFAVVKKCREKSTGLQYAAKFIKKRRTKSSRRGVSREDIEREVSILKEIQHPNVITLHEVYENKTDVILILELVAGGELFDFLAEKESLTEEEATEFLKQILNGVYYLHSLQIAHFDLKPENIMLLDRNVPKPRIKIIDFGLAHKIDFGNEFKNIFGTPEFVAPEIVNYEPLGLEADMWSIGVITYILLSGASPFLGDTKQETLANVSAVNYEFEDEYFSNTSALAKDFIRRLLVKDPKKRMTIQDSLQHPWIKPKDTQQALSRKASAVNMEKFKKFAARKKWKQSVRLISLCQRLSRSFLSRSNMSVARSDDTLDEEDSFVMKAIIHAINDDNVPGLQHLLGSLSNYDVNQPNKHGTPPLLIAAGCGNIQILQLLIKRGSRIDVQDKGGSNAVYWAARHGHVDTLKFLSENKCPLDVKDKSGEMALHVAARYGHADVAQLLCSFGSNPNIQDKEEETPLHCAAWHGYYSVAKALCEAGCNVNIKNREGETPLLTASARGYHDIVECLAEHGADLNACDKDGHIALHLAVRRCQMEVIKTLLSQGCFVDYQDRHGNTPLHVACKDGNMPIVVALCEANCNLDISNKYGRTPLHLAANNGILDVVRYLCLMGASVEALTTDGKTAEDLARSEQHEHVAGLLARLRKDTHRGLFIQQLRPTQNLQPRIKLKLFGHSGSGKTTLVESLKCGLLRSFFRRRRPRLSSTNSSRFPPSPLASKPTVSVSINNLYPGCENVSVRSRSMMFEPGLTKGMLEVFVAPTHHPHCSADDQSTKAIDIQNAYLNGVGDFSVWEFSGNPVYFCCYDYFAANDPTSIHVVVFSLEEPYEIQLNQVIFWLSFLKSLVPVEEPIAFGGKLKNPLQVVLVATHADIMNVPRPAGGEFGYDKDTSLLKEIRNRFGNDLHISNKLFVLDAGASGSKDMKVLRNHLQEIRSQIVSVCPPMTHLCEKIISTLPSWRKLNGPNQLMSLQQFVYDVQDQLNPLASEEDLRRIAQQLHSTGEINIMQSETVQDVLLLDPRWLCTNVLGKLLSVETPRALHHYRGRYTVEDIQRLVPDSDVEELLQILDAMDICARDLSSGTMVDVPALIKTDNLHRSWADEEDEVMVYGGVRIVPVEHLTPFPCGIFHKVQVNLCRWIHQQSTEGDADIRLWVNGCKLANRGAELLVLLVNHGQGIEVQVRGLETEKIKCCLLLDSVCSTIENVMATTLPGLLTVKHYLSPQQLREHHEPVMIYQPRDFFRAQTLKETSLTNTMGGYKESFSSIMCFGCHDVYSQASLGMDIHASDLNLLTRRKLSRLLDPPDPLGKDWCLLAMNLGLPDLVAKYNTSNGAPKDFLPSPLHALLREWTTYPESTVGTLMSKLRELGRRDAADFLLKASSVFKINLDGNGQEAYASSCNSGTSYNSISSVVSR", "conditions": "DAPK1, 10 μM", "protocol": "as §1"}, "[15]": {"molecular_target": "DYRK3 (Homo sapiens, UniProt O43781)", "conditions": "DYRK3, 10 μM", "protocol": "as §1"}, "[16]": {"molecular_target": "IRAK1 (Homo sapiens, UniProt P51617)", "conditions": "IRAK1, 10 μM", "protocol": "as §1"}, "[17]": {"molecular_target": "IRAK4 (Homo sapiens, UniProt Q9NWZ3)", "conditions": "IRAK4, 10 μM", "protocol": "as §1"}, "[18]": {"molecular_target": "EIF2AK3 (Homo sapiens, UniProt Q9NZJ5)", "sequence (Q9NZJ5 30-1116)": "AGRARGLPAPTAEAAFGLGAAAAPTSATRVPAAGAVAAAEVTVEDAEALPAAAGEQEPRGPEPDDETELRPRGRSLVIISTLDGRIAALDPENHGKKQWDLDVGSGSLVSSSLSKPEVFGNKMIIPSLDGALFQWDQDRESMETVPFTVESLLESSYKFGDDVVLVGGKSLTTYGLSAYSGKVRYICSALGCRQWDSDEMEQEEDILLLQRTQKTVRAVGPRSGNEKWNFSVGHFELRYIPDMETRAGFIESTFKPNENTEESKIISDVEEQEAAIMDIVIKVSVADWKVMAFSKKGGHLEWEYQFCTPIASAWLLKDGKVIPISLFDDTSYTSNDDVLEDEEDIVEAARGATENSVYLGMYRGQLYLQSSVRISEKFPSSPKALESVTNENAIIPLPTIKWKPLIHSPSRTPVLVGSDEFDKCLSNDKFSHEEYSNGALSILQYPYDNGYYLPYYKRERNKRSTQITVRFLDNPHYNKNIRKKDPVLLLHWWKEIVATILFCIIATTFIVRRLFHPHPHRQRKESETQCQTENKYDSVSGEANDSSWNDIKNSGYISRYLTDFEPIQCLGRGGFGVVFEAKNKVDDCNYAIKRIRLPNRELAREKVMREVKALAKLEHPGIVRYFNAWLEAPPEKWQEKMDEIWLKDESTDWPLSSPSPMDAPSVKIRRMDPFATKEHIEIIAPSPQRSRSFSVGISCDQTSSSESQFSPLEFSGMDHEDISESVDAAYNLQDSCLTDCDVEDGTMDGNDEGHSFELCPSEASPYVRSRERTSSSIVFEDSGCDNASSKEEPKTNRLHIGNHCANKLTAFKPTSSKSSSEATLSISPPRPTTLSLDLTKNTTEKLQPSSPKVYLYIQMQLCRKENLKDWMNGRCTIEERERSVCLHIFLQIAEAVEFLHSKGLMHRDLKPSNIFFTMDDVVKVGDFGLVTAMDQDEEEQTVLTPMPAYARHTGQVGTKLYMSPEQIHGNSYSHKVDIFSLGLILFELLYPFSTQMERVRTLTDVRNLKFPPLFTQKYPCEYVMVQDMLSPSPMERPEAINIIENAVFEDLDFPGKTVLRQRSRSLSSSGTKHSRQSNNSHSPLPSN", "conditions": "EIF2AK3, 10 μM", "protocol": "as §1"}, "[19]": {"molecular_target": "MARK1 (Homo sapiens, UniProt Q9P0L2)", "conditions": "MARK1, 10 μM", "protocol": "as §1"}, "[20]": {"molecular_target": "LKB1 (Homo sapiens, UniProt Q15831)", "conditions": "LKB1, 10 μM", "protocol": "as §1"}, "[21]": {"molecular_target": "FGF-R1 (Homo sapiens, UniProt P11362)", "conditions": "FGF-R1, 10 μM", "protocol": "as §1"}, "[22]": {"molecular_target": "TAK1-TAB1 (Homo sapiens, UniProt O43318)", "conditions": "TAK1-TAB1, 10 μM", "protocol": "as §1"}, "[23]": {"molecular_target": "IKKb (Homo sapiens, UniProt O14920)", "protocol": "as §1"}, "[24]": {"molecular_target": "JAK2 (Homo sapiens, UniProt O60674)", "sequence (O60674 whole entry)": "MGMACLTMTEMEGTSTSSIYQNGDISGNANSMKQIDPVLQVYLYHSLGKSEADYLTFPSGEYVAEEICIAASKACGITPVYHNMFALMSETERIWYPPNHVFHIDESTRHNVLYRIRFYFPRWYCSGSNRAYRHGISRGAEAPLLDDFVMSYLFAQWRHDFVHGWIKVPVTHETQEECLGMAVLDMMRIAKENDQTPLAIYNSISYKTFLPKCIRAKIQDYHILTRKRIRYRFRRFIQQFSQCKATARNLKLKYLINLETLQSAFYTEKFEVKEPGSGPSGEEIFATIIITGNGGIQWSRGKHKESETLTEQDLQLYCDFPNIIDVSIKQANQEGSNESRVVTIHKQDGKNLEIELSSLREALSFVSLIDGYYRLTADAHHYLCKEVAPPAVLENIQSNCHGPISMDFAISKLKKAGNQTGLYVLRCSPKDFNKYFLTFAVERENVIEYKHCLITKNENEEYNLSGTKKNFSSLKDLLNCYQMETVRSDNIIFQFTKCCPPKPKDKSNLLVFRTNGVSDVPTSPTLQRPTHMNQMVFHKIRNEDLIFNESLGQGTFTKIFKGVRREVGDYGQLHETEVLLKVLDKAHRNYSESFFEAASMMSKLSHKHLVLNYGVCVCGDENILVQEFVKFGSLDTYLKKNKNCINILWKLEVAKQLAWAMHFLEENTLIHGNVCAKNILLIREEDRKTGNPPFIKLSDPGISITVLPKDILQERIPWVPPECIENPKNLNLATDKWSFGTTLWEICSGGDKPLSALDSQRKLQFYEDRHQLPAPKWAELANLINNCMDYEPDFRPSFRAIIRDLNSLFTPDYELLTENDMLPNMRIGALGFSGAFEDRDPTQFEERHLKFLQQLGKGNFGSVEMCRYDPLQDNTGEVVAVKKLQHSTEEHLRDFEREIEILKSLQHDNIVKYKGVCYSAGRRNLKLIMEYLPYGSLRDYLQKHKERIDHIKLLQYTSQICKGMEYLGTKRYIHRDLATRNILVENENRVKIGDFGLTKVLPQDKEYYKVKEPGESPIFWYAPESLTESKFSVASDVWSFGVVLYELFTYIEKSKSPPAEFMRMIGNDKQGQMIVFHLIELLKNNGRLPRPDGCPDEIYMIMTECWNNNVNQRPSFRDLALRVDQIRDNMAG", "conditions": "JAK2, 10 μM", "protocol": "as §1"}, "[25]": {"molecular_target": "RSK2 (Homo sapiens, UniProt P51812)", "conditions": "RSK2, 10 μM", "protocol": "as §1"}, "[26]": {"molecular_target": "MNK2 (Homo sapiens, UniProt Q9HBH9)", "conditions": "MNK2, 10 μM", "protocol": "as §1"}, "[27]": {"molecular_target": "PIM1 (Homo sapiens, UniProt P11309)", "conditions": "PIM1, 10 μM", "protocol": "as §1"}, "[28]": {"molecular_target": "PAK5 (Homo sapiens, UniProt Q9P286)", "conditions": "PAK5, 10 μM", "protocol": "as §1"}, "[29]": {"molecular_target": "PRAK (Homo sapiens, UniProt Q8IW41)", "protocol": "as §1"}, "[30]": {"molecular_target": "PAK6 (Homo sapiens, UniProt Q9NQU5)", "sequence (Q9NQU5 whole entry)": "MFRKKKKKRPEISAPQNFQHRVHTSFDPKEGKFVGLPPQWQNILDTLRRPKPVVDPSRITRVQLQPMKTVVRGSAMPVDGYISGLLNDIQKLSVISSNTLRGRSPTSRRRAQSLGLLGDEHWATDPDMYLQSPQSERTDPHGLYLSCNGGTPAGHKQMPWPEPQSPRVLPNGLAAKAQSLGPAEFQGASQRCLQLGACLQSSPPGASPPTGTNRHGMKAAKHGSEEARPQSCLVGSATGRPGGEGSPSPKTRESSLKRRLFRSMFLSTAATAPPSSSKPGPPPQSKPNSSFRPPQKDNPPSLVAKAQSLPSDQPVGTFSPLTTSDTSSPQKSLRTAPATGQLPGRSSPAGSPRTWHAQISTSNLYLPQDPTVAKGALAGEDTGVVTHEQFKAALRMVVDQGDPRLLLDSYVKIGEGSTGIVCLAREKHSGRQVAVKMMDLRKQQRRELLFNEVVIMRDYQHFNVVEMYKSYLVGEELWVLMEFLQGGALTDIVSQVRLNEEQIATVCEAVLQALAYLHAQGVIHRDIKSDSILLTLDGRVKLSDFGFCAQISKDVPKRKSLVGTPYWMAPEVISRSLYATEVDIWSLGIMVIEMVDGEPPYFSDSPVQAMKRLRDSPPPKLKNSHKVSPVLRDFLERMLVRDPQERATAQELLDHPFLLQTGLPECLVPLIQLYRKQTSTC", "conditions": "PAK6, 10 μM", "protocol": "as §1"}, "[31]": {"molecular_target": "OSR1 (Homo sapiens, UniProt O95747)", "conditions": "OSR1, 10 μM", "protocol": "as §1"}, "[32]": {"molecular_target": "ERK1 (Homo sapiens, UniProt P27361)", "conditions": "ERK1, 10 μM", "protocol": "as §1"}, "[33]": {"molecular_target": "NEK2a (Homo sapiens, UniProt P51955)", "protocol": "as §1"}, "[34]": {"molecular_target": "PKCγ (Homo sapiens, UniProt P05129)", "protocol": "as §1"}, "[35]": {"molecular_target": "PIM2 (Homo sapiens, UniProt Q9P1W9)", "sequence (Q9P1W9 whole entry)": "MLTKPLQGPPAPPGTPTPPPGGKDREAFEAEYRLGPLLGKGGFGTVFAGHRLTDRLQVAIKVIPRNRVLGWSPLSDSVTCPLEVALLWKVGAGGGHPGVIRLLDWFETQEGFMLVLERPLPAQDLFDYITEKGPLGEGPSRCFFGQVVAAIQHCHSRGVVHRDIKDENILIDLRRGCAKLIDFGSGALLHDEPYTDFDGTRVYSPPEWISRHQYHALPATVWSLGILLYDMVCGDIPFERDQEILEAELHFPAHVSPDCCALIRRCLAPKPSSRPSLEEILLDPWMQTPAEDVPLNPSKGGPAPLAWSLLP", "conditions": "PIM2, 10 μM", "protocol": "as §1"}}, "data": [{"molecule": "CN(C)c1cc[n+](CCCCCCCCCCCC[n+]2ccc(N(C)C)cc2)cc1", "note": "[ICL-CCIC-0019]", "values": [{"measurement": "remaining activity at 10 µM", "setting": "[1]", "result": 86, "unit": "%"}, {"measurement": "remaining activity at 10 µM", "setting": "[2]", "result": 102, "unit": "%"}, {"measurement": "remaining activity at 10 µM", "setting": "[3]", "result": 88, "unit": "%"}, {"measurement": "remaining activity at 10 µM", "setting": "[4]", "result": 107, "unit": "%"}, {"measurement": "remaining activity at 10 µM", "setting": "[5]", "result": 100, "unit": "%"}, {"measurement": "remaining activity at 10 µM", "setting": "[6]", "result": 100, "unit": "%"}, {"measurement": "remaining activity at 10 µM", "setting": "[7]", "result": 95, "unit": "%"}, {"measurement": "inhibition at 10 µM", "setting": "[8]", "result": "33 ± 6", "unit": "%"}, {"measurement": "remaining activity at 10 µM", "setting": "[8]", "result": 67, "unit": "%"}, {"measurement": "remaining activity at 10 µM", "setting": "[9]", "result": 97, "unit": "%"}, {"measurement": "remaining activity at 10 µM", "setting": "[10]", "result": 98, "unit": "%"}, {"measurement": "remaining activity at 10 µM", "setting": "[11]", "result": 84, "unit": "%"}, {"measurement": "remaining activity at 10 µM", "setting": "[12]", "result": 90, "unit": "%"}, {"measurement": "remaining activity at 10 µM", "setting": "[13]", "result": 100, "unit": "%"}, {"measurement": "remaining activity at 10 µM", "setting": "[14]", "result": 96, "unit": "%"}, {"measurement": "remaining activity at 10 µM", "setting": "[15]", "result": 106, "unit": "%"}, {"measurement": "remaining activity at 10 µM", "setting": "[16]", "result": 89, "unit": "%"}, {"measurement": "remaining activity at 10 µM", "setting": "[17]", "result": 83, "unit": "%"}, {"measurement": "remaining activity at 10 µM", "setting": "[18]", "result": 97, "unit": "%"}, {"measurement": "remaining activity at 10 µM", "setting": "[19]", "result": 103, "unit": "%"}, {"measurement": "remaining activity at 10 µM", "setting": "[20]", "result": 100, "unit": "%"}, {"measurement": "remaining activity at 10 µM", "setting": "[21]", "result": 92, "unit": "%"}, {"measurement": "remaining activity at 10 µM", "setting": "[22]", "result": 97, "unit": "%"}, {"measurement": "remaining activity at 10 µM", "setting": "[23]", "result": 101, "unit": "%"}, {"measurement": "remaining activity at 10 µM", "setting": "[24]", "result": 90, "unit": "%"}, {"measurement": "remaining activity at 10 µM", "setting": "[25]", "result": 105, "unit": "%"}, {"measurement": "remaining activity at 10 µM", "setting": "[26]", "result": 96, "unit": "%"}, {"measurement": "remaining activity at 10 µM", "setting": "[27]", "result": 102, "unit": "%"}, {"measurement": "remaining activity at 10 µM", "setting": "[28]", "result": 90, "unit": "%"}, {"measurement": "remaining activity at 10 µM", "setting": "[29]", "result": 101, "unit": "%"}, {"measurement": "remaining activity at 10 µM", "setting": "[30]", "result": 107, "unit": "%"}, {"measurement": "remaining activity at 10 µM", "setting": "[31]", "result": 99, "unit": "%"}, {"measurement": "remaining activity at 10 µM", "setting": "[32]", "result": 91, "unit": "%"}, {"measurement": "remaining activity at 10 µM", "setting": "[33]", "result": 101, "unit": "%"}, {"measurement": "remaining activity at 10 µM", "setting": "[34]", "result": 93, "unit": "%"}, {"measurement": "remaining activity at 10 µM", "setting": "[35]", "result": 103, "unit": "%"}]}]}
